Measurements taken from PubChem BioAssay (NCI).
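Assay format: 96-well plates, 48-hour exposure. The concentration for full growth arrest is given as TGI.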

How the values were obtained:
Test in all cases: inhibition of tumour cell growth, NCI panel, 48 h
786-0 renal = system: 786-0 renal
A498 renal = system: A498 renal
A549 NSCLC = system: A549 NSCLC
ACHN renal = system: ACHN renal
BT-549 breast = system: BT-549 breast
CAKI-1 renal = system: CAKI-1 renal
CCRF-CEM leukemia = system: CCRF-CEM leukemia
COLO 205 colon = system: COLO 205 colon
DU-145 prostate = system: DU-145 prostate
EKVX NSCLC = system: EKVX NSCLC
HCC-2998 colon = system: HCC-2998 colon
HCT-116 colon = system: HCT-116 colon
HCT-15 colon = system: HCT-15 colon
HOP-62 NSCLC = system: HOP-62 NSCLC
HOP-92 NSCLC = system: HOP-92 NSCLC
HS 578T breast = system: HS 578T breast
HT29 colon = system: HT29 colon
IGROV1 ovarian = system: IGROV1 ovarian
K-562 leukemia = system: K-562 leukemia
KM12 colon = system: KM12 colon
LOX IMVI melanoma = system: LOX IMVI melanoma
M14 melanoma = system: M14 melanoma
MALME-3M melanoma = system: MALME-3M melanoma
MCF7 breast = system: MCF7 breast
MDA-MB-231 breast = system: MDA-MB-231 breast
MDA-MB-435 = system: MDA-MB-435
MDA-N = system: MDA-N
MOLT-4 leukemia = system: MOLT-4 leukemia
NCI-H226 lung = system: NCI-H226 lung
NCI-H23 lung = system: NCI-H23 lung
NCI-H460 lung = system: NCI-H460 lung
NCI-H522 lung = system: NCI-H522 lung
NCI/ADR-RES ovarian = system: NCI/ADR-RES ovarian
OVCAR-3 ovarian = system: OVCAR-3 ovarian
OVCAR-4 ovarian = system: OVCAR-4 ovarian
OVCAR-5 ovarian = system: OVCAR-5 ovarian
OVCAR-8 ovarian = system: OVCAR-8 ovarian
PC-3 prostate = system: PC-3 prostate
RPMI-8226 leukemia = system: RPMI-8226 leukemia
RXF 393 renal = system: RXF 393 renal
SF-268 CNS = system: SF-268 CNS
SF-295 CNS = system: SF-295 CNS
SF-539 CNS = system: SF-539 CNS
SK-MEL-2 melanoma = system: SK-MEL-2 melanoma
SK-MEL-28 melanoma = system: SK-MEL-28 melanoma
SK-MEL-5 melanoma = system: SK-MEL-5 melanoma
SK-OV-3 ovarian = system: SK-OV-3 ovarian
SN12C renal = system: SN12C renal
SNB-19 CNS = system: SNB-19 CNS
SNB-75 CNS = system: SNB-75 CNS
SR leukemia = system: SR leukemia
SW-620 colon = system: SW-620 colon
T-47D breast = system: T-47D breast
TK-10 renal = system: TK-10 renal
U251 CNS = system: U251 CNS
UACC-257 melanoma = system: UACC-257 melanoma
UACC-62 melanoma = system: UACC-62 melanoma
UO-31 renal = system: UO-31 renal

Which TGI (786-0 renal) does the source give for COc1ccc2c(-c3ccc(O)cc3)c(Oc3ccc(Cl)cc3)c(=O)oc2c1 here?
The TGI was > 35.1 µM.

What about the TGI (A498 renal) of the same molecule?
Its TGI is 22.5 µM.

What about the TGI (A549 NSCLC) of the same molecule?
Its TGI is > 29.5 µM.

And the TGI (ACHN renal)?
The TGI was > 37.7 µM.

What about the TGI (BT-549 breast) of the same molecule?
Its TGI is 23.3 µM.

And the TGI (CAKI-1 renal)?
Its TGI is 10.2 µM.

What about the TGI (CCRF-CEM leukemia) of the same molecule?
Its TGI is > 100 µM.

And the TGI (COLO 205 colon)?
Its TGI is > 36.5 µM.

And the TGI (DU-145 prostate)?
Its TGI is 24.7 µM.

And the TGI (EKVX NSCLC)?
The TGI was 12.5 µM.

And the TGI (HCC-2998 colon)?
Its TGI is 25.7 µM.

And the TGI (HCT-116 colon)?
Its TGI is > 33.6 µM.

And the TGI (HCT-15 colon)?
Its TGI is 17.6 µM.

What about the TGI (HOP-62 NSCLC) of the same molecule?
Its TGI is 44.2 µM.

And the TGI (HOP-92 NSCLC)?
Its TGI is 23.7 µM.

What about the TGI (HS 578T breast) of the same molecule?
Its TGI is 16.8 µM.

And the TGI (HT29 colon)?
The TGI was > 38.1 µM.

What about the TGI (IGROV1 ovarian) of the same molecule?
The TGI was 9.99 µM.

What about the TGI (K-562 leukemia) of the same molecule?
The TGI was > 57.8 µM.

And the TGI (KM12 colon)?
Its TGI is 22.6 µM.

And the TGI (LOX IMVI melanoma)?
The TGI was > 44.9 µM.

And the TGI (M14 melanoma)?
The TGI was 17.9 µM.

And the TGI (MALME-3M melanoma)?
The TGI was 13.8 µM.

And the TGI (MCF7 breast)?
Its TGI is > 23.1 µM.

What about the TGI (MDA-MB-231 breast) of the same molecule?
The TGI was 20.6 µM.

And the TGI (MDA-MB-435)?
Its TGI is 25.7 µM.

What about the TGI (MDA-N) of the same molecule?
The TGI was 23.2 µM.

What about the TGI (MOLT-4 leukemia) of the same molecule?
Its TGI is > 29.9 µM.

And the TGI (NCI-H226 lung)?
The TGI was > 43.3 µM.

And the TGI (NCI-H23 lung)?
The TGI was 8.32 µM.

And the TGI (NCI-H460 lung)?
Its TGI is 19.8 µM.

And the TGI (NCI-H522 lung)?
Its TGI is 6.53 µM.

What about the TGI (NCI/ADR-RES ovarian) of the same molecule?
Its TGI is > 46 µM.

And the TGI (OVCAR-3 ovarian)?
The TGI was 12.3 µM.

And the TGI (OVCAR-4 ovarian)?
The TGI was 25.4 µM.

What about the TGI (OVCAR-5 ovarian) of the same molecule?
The TGI was 21.4 µM.

What about the TGI (OVCAR-8 ovarian) of the same molecule?
Its TGI is > 48.8 µM.

What about the TGI (PC-3 prostate) of the same molecule?
The TGI was 24.4 µM.

And the TGI (RPMI-8226 leukemia)?
Its TGI is 20.8 µM.

What about the TGI (RXF 393 renal) of the same molecule?
The TGI was 25 µM.

What about the TGI (SF-268 CNS) of the same molecule?
The TGI was 24.6 µM.

What about the TGI (SF-295 CNS) of the same molecule?
The TGI was 23 µM.

What about the TGI (SF-539 CNS) of the same molecule?
Its TGI is 28.8 µM.

What about the TGI (SK-MEL-2 melanoma) of the same molecule?
Its TGI is 11.2 µM.

And the TGI (SK-MEL-28 melanoma)?
Its TGI is 23.1 µM.

And the TGI (SK-MEL-5 melanoma)?
Its TGI is 10.4 µM.

And the TGI (SK-OV-3 ovarian)?
Its TGI is 44.9 µM.

What about the TGI (SN12C renal) of the same molecule?
The TGI was 19.2 µM.

What about the TGI (SNB-19 CNS) of the same molecule?
The TGI was 24.2 µM.

And the TGI (SNB-75 CNS)?
The TGI was 33.8 µM.

And the TGI (SR leukemia)?
The TGI was > 28.5 µM.

What about the TGI (SW-620 colon) of the same molecule?
The TGI was > 32 µM.

And the TGI (T-47D breast)?
Its TGI is > 100 µM.

And the TGI (TK-10 renal)?
Its TGI is > 22.7 µM.

What about the TGI (U251 CNS) of the same molecule?
The TGI was 20.1 µM.

What about the TGI (UACC-257 melanoma) of the same molecule?
The TGI was 41 µM.

What about the TGI (UACC-62 melanoma) of the same molecule?
Its TGI is 18.6 µM.

What about the TGI (UO-31 renal) of the same molecule?
Its TGI is 13.6 µM.

For CC(=O)Nc1ccc2cc3[nH]c4cc(NC(C)=O)ccc4c3nc2c1, which TGI (786-0 renal) is on record?
Its TGI is > 100 µM.

And the TGI (A498 renal)?
Its TGI is > 100 µM.

What about the TGI (A549 NSCLC) of the same molecule?
The TGI was > 100 µM.

And the TGI (ACHN renal)?
Its TGI is > 100 µM.

And the TGI (BT-549 breast)?
The TGI was > 100 µM.

What about the TGI (CAKI-1 renal) of the same molecule?
Its TGI is > 100 µM.

And the TGI (CCRF-CEM leukemia)?
Its TGI is > 100 µM.

And the TGI (COLO 205 colon)?
Its TGI is > 100 µM.

And the TGI (DU-145 prostate)?
The TGI was > 100 µM.

And the TGI (EKVX NSCLC)?
Its TGI is > 100 µM.

What about the TGI (HCC-2998 colon) of the same molecule?
Its TGI is > 100 µM.

And the TGI (HCT-116 colon)?
The TGI was > 100 µM.

What about the TGI (HCT-15 colon) of the same molecule?
Its TGI is > 100 µM.

What about the TGI (HOP-62 NSCLC) of the same molecule?
Its TGI is > 100 µM.

What about the TGI (HOP-92 NSCLC) of the same molecule?
The TGI was > 100 µM.

And the TGI (HS 578T breast)?
Its TGI is > 100 µM.

And the TGI (HT29 colon)?
The TGI was > 100 µM.

What about the TGI (IGROV1 ovarian) of the same molecule?
Its TGI is > 100 µM.

What about the TGI (K-562 leukemia) of the same molecule?
The TGI was > 100 µM.

And the TGI (KM12 colon)?
Its TGI is > 100 µM.

What about the TGI (LOX IMVI melanoma) of the same molecule?
The TGI was > 100 µM.

And the TGI (M14 melanoma)?
The TGI was > 100 µM.

What about the TGI (MALME-3M melanoma) of the same molecule?
The TGI was > 100 µM.

And the TGI (MCF7 breast)?
The TGI was > 100 µM.

And the TGI (MDA-MB-231 breast)?
Its TGI is > 100 µM.

And the TGI (MDA-MB-435)?
Its TGI is > 100 µM.

And the TGI (MDA-N)?
The TGI was > 100 µM.

What about the TGI (MOLT-4 leukemia) of the same molecule?
The TGI was 77.3 µM.

And the TGI (NCI-H226 lung)?
The TGI was > 100 µM.

And the TGI (NCI-H23 lung)?
The TGI was > 100 µM.

What about the TGI (NCI-H460 lung) of the same molecule?
Its TGI is > 100 µM.

And the TGI (NCI-H522 lung)?
The TGI was > 100 µM.

And the TGI (NCI/ADR-RES ovarian)?
The TGI was > 100 µM.

And the TGI (OVCAR-3 ovarian)?
The TGI was > 100 µM.

And the TGI (OVCAR-4 ovarian)?
Its TGI is > 100 µM.

And the TGI (OVCAR-5 ovarian)?
The TGI was > 100 µM.

And the TGI (OVCAR-8 ovarian)?
The TGI was > 100 µM.

What about the TGI (PC-3 prostate) of the same molecule?
The TGI was > 100 µM.

What about the TGI (RPMI-8226 leukemia) of the same molecule?
Its TGI is > 100 µM.

And the TGI (RXF 393 renal)?
Its TGI is > 100 µM.

And the TGI (SF-268 CNS)?
Its TGI is > 100 µM.

And the TGI (SF-295 CNS)?
The TGI was > 100 µM.

And the TGI (SF-539 CNS)?
Its TGI is > 100 µM.

And the TGI (SK-MEL-2 melanoma)?
Its TGI is > 100 µM.

And the TGI (SK-MEL-28 melanoma)?
Its TGI is > 100 µM.

And the TGI (SK-MEL-5 melanoma)?
The TGI was > 100 µM.

What about the TGI (SK-OV-3 ovarian) of the same molecule?
The TGI was > 100 µM.

What about the TGI (SN12C renal) of the same molecule?
The TGI was > 100 µM.

And the TGI (SNB-19 CNS)?
Its TGI is > 100 µM.

And the TGI (SNB-75 CNS)?
The TGI was > 100 µM.

And the TGI (SR leukemia)?
Its TGI is > 100 µM.

What about the TGI (SW-620 colon) of the same molecule?
Its TGI is > 100 µM.

What about the TGI (T-47D breast) of the same molecule?
The TGI was > 100 µM.

What about the TGI (TK-10 renal) of the same molecule?
The TGI was > 100 µM.

What about the TGI (U251 CNS) of the same molecule?
Its TGI is > 100 µM.

And the TGI (UACC-257 melanoma)?
The TGI was > 100 µM.

And the TGI (UACC-62 melanoma)?
Its TGI is > 100 µM.

What about the TGI (UO-31 renal) of the same molecule?
The TGI was > 100 µM.
